The values below come from PubChem BioAssay (NCI).

What all share (assay): NCI tumour cell line growth inhibition, 48 h
The subject of assay [1] is HOP-62 NSCLC.
The test system of assay [2] is MALME-3M melanoma.
Assay [3] concerns COLO 205 colon.
In assay [4] the test system is A549 NSCLC.
Assay [5] concerns MOLT-4 leukemia.
Assay [6] deals with SNB-19 CNS.
Assay [7] has as its system HCT-116 colon.
The test system of assay [8] is HT29 colon.
The subject of assay [9] is NCI/ADR-RES ovarian.
For assay [10], the system named is MDA-MB-435.
Assay [11] deals with T-47D breast.
Assay [12] concerns 786-0 renal.

Each structure is given as a SMILES string.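 Test compounds were applied to cells in 96-well plates for 48 hours at 5 doses. At the GI50, growth is halved. TGI marks complete inhibition of growth.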

Consider `CON(C)C(=O)C(Cc1ccccc1)NC(=O)OCc1ccccc1` (centres undefined), for which the TGI in [1], in assay [2], in [3], in assay [4], in [5] and in assay [6] was over 100 µM each time. In addition, the TGI in assay [7] and in assay [8] was over 100 µM in each case.

Regarding `Cc1ccc(C(=O)OC(C(=O)O)C(OC(=O)c2ccc(C)cc2)C(=O)O)cc1` (centres undefined) (tested in a mixture with another compound), the TGI in assay [1] is 29.2 µM; in assay [2] it was 12 µM; in assay [3] it was 10.5 µM; in assay [4], 22.3 µM; in assay [5], 14.3 µM; in assay [6] it was 25.6 µM. Besides, the TGI is 13.8 µM in [7], 10.2 µM in [8] and 23 µM in [9].

For the compound `O=[N+]([O-])c1ccc2nc(Nc3ccccc3)c(Nc3ccccc3)nc2c1`, the TGI is 2.45 µM in [1]; 4.79 µM in assay [2]; 2.97 µM in [3]; 2.36 µM in assay [4]; 4.4 µM in assay [10]; over 100 µM in [5]. Also, the TGI in assay [11] worked out at 8.63 µM; in assay [12] it was 7.83 µM; in [6], 7.7 µM; in assay [7], 1.82 µM; in [8], 1.53 µM; in assay [9], 6 µM.

In the case of `C=C1C(=O)O[C@@H]2/C=C(C)/C=C\[C@@H]3O[C@@]3(C)C[C@@H](O)C12` (some centres undefined), the TGI is over 100 µM in [1]; 30.9 µM in assay [2]; 21.1 µM in [3]; over 100 µM in assay [4]; 39.6 µM in assay [10]; 30.1 µM in [5]. For the same compound, the TGI in [11] amounted to 23.6 µM; in [12] it was 21.1 µM; in [6], 42.5 µM; in [7], 20.6 µM; in assay [8], 26.2 µM; in assay [9], 33.4 µM.

For `Cc1[nH]c(=O)nc2sc(=NC3CCCCC3)n(C3CCCCC3)c(=O)c12`, the TGI in assay [1], in assay [2], in [3], in assay [4], in assay [10] and in [5] was over 100 µM each time. The TGI in [11], in [12], in assay [6], in assay [7], in assay [8] and in assay [9] was over 100 µM throughout.

With `COc1cc(OCCN(C)C)c2[nH]c(C(=O)N3CC(CCl)c4ccc(N)cc43)cc2c1` (centres undefined), the TGI in [1] was 0.0507 µM; in [3] it was 0.17 µM; in [4], over 34.3 µM; in assay [10] it was 0.281 µM; in assay [5] it was 0.0522 µM; in [12] it was 1.47 µM. Further, the TGI in assay [6] was found to be 2.59 µM; in assay [7], 1.64 µM; in assay [8] it was 0.262 µM; in assay [9], 1 µM.

Turning to `COc1cccc(-c2cc(=O)c3cc(N4CCCCC4)ccc3[nH]2)c1`, the TGI was over 43.9 µM in assay [1]; over 100 µM in [2]; over 100 µM in [5]; over 100 µM in [11]; over 48 µM in [12]; over 100 µM in assay [6]. Also, the TGI in assay [8] turned out to be 0.0316 µM.

`COc1cc(-c2cccs2)sc1-c1cccs1`: the TGI in assay [2] is over 100 µM; in assay [3], 27.3 µM; in [4], over 100 µM; in assay [5], over 100 µM; in [12], over 100 µM; in assay [6], over 100 µM. Besides, the TGI in assay [7] is over 100 µM; in [8], 53.3 µM.

For `Cc1cn(C2OC(CO[Si](C)(C)C(C)(C)C)C(N(C)O[Si](C)(C)C(C)(C)C)C2[Se]c2ccccc2)c(=O)[nH]c1=O` (centres undefined), the TGI is 43.1 µM in [1]; 29.4 µM in assay [2]; over 100 µM in assay [3]; 49.5 µM in assay [4]; 21 µM in [10]; over 100 µM in [5]. For the same compound, the TGI in [12] stood at 9.29 µM; in assay [6], 32.2 µM; in [7], 19.9 µM; in assay [8] it was 16.8 µM; in assay [9] it was 58 µM.

In the case of `O=c1cc(-c2ccc3c(c2)OCO3)[nH]c2cc3c(cc12)OCO3`, the TGI in [1] was 63 µM; in assay [2], 97.8 µM; in assay [3] it was over 100 µM; in assay [4] it was over 100 µM; in assay [5], over 100 µM; in [12] it was over 100 µM. The TGI in assay [6], in [7] and in assay [8] was over 100 µM in each case. The GI50 in assay [7] was 38 µM.

For the compound `CC1NC(=O)C(C)C(c2ccccc2)N(N=O)C1c1ccccc1` (centres undefined), the TGI in [1], in [2], in assay [3], in assay [4], in assay [5] and in assay [6] was over 100 µM each time. Further, the TGI in assay [7], in [8] and in [9] was over 100 µM throughout.

`CCn1cnc2c(=S)nc(N)[nH]c21`: the TGI in assay [1], in [2], in assay [3], in [4], in assay [5] and in assay [12] was over 100 µM throughout. Further, the TGI in assay [6], in assay [7] and in assay [8] was over 100 µM each time.

For `COc1cc(/C=C2\CN(S(=O)(=O)c3ccc(C)cc3)C/C(=C\c3cc(CN4CCCC4)c(O)c(OC)c3)C2=O)cc(CN2CCCC2)c1O`, the GI50 in [2] was 1710 nM; in assay [3] it was 568 nM; in [10], 1530 nM; in [5], 379 nM; in [11] it was 1420 nM; in assay [7], 0.848 µM. Further, the GI50 in [9] was 12 µM. In addition, the TGI is 3.3 µM in assay [2]; 2.03 µM in assay [3]; 2.97 µM in [10]; 2.92 µM in assay [5]; 3.79 µM in [11]; 2.21 µM in assay [7]. In addition, in [9], the TGI was over 100 µM.

Turning to `CCNC(=O)c1ccc(C)c(N=NN(C)C)c1`, the TGI in assay [1], in assay [4], in assay [12], in assay [6], in assay [7] and in assay [8] was over 100 µM each time.

Consider `O=C1/C(=C/c2ccco2)NC(=S)N1CN1CCCCC1`, for which the TGI in [1], in [2], in assay [3], in assay [4], in assay [10] and in [5] was over 100 µM each time. For the same compound, the TGI in assay [12], in assay [6], in [7], in assay [8] and in [9] was over 100 µM each time.

In the case of `NC(Cc1ccccc1)C(=O)NC(Cc1ccccc1)NC(=O)C(Cc1c[nH]c2ccccc12)C(=O)O` (centres undefined), the TGI in assay [1], in assay [2], in assay [3], in assay [4], in assay [10] and in assay [11] was over 100 µM in each case. Moreover, the TGI in assay [12], in [6], in [7], in assay [8] and in assay [9] was over 100 µM in each case.

With `CCOC(=O)c1csc(NC(=O)CN2CCCC2)n1`, the TGI in [1], in assay [3], in assay [4], in assay [10], in [5] and in assay [11] was over 100 µM in each case. Further, the TGI in assay [6], in [8] and in assay [9] was over 100 µM throughout.

For `O=C(CC1Sc2ccccc2NC1=O)Nc1ccccc1[N+](=O)[O-]` (centres undefined), the TGI in assay [1], in assay [2], in [3], in assay [4], in assay [5] and in assay [6] was over 100 µM each time. In addition, the TGI in assay [7] and in assay [8] was over 100 µM each time.

With `Nc1nc(Cl)cc(OCC2(CO)CC=CC2)n1`, the TGI in assay [1], in assay [2], in assay [4], in assay [10], in assay [5] and in [12] was over 100 µM each time. Also, the TGI in assay [6], in [7], in [8] and in assay [9] was over 100 µM each time.

`COc1ccc(C2Oc3cc(OC)c(OC)cc3C2CCl)cc1OC` (centres undefined): the TGI in assay [1], in [2], in assay [3], in [4], in assay [5] and in assay [12] was over 100 µM in each case. The TGI in assay [6] and in [7] was over 100 µM each time.
